Source: patent US11077163B2, “Peptide for treating ocular diseases and composition for treating ocular diseases comprising same” (GemVax & KAEL CO., LTD., priority 2015, dated 2021)

Tests used:
Format in all cases: in vivo, Brown Norway rats
[1] = system: laser-induced choroidal neovascularization (CNV); experiment: CNV area by isolectin staining of retinal pigment epithelium-choroid-sclera tissues in laser-induced CNV animal model; conditions: subcutaneous once a day, isolectin-stained area at 2 weeks after laser
Description: Brown Norway rats were anesthetized, and pupils of the eyes were dilated using 0.5% phenylephrine (pupillary dilatation). The target rats having the dilated pupils of the eyes were irradiated with a 577 nm laser (577 nm, diode, 10 μm, 0.05 seconds) 6 to 8 times per eye to cause neovascularization in the choroid. Upon laser irradiation, the eyes were covered with a cover glass, and the rupture of Bruch's membranes was confirmed from the fact that bubbles occurred during irradiation with lasers using a slit lamp delivery system. […] An area of tissues stained with isolectin specific to vascular endothelial cells was measured to determine CNV areas in the control and the groups in which pep1 was administered. The groups in which pep1 was administered and the control complied with the experimental groups disclosed in Example 2, and the thicknesses of all lesions in each of the groups were measured to check whether there was a difference in CNV areas between the groups.

[2] = system: laser-induced choroidal neovascularization (CNV); experiment: CNV thickness by optical coherence tomography (OCT) in laser-induced CNV animal model; conditions: subcutaneous once a day
Description: Brown Norway rats were anesthetized, and pupils of the eyes were dilated using 0.5% phenylephrine (pupillary dilatation). The target rats having the dilated pupils of the eyes were irradiated with a 577 nm laser (577 nm, diode, 10 μm, 0.05 seconds) 6 to 8 times per eye to cause neovascularization in the choroid. Upon laser irradiation, the eyes were covered with a cover glass, and the rupture of Bruch's membranes was confirmed from the fact that bubbles occurred during irradiation with lasers using a slit lamp delivery system. In a laser-induced CNV […] model, the rats were randomized to experimental groups in which the peptide pep1 prepared by the method disclosed in Example 1 was administered at three doses of 0.1, 1, and 10 nM, and the control (vehicle) in which pep1 was not administered, and a drug was subcutaneously administered to the rats once a day for a period of time starting from the day before 3 days of laser irradiation to 2 weeks after the laser irradiation. To compare the CNV activities between various groups, a Kruskal-Wallis test was used. […] The groups in which pep1 was administered and the control complied with the experimental groups disclosed in Example 2, and the thicknesses of all lesions in each of the groups were measured to check whether there was a difference in CNV thicknesses between the groups.

[3] = system: laser-induced choroidal neovascularization (CNV); experiment: Angiographic leakage in the choroid by fluorescein angiography (FAG) in laser-induced CNV animal model; conditions: subcutaneous once a day, FAG at 2 weeks after laser
Description: Brown Norway rats were anesthetized, and pupils of the eyes were dilated using 0.5% phenylephrine (pupillary dilatation). The target rats having the dilated pupils of the eyes were irradiated with a 577 nm laser (577 nm, diode, 10 μm, 0.05 seconds) 6 to 8 times per eye to cause neovascularization in the choroid. Upon laser irradiation, the eyes were covered with a cover glass, and the rupture of Bruch's membranes was confirmed from the fact that bubbles occurred during irradiation with lasers using a slit lamp delivery system. In a laser-induced CNV […] model, the rats were randomized to experimental groups in which the peptide pep1 prepared by the method disclosed in Example 1 was administered at three doses of 0.1, 1, and 10 nM, and the control (vehicle) in which pep1 was not administered, and a drug was subcutaneously administered to the rats once a day for a period of time starting from the day before 3 days of laser irradiation to 2 weeks after the laser irradiation. To compare the CNV activities between various groups, a Kruskal-Wallis test was used. In this case, the comparison between two groups was performed using a Mann-Whitney U test. A p value was considered to be statistically significant when the p value was less than 0.05. After CNV was induced with lasers, the rats in the groups in which pep1 was administered and the rats in the control were anesthetized after the elapse of 2 weeks, and a contrast medium was intraperitoneally injected at a dose of 0.1 mL (10% fluorescein disodium salt). Levels of angiographic leakage in the choroid between the control and the groups in which pep1 was administered were compared using fluorescein angiography (FAG). The groups in which pep1 was administered and the control complied with the experimental groups disclosed in Example 2, and the leakage levels at all lesions in each of the groups were measured to check whether there was a difference in angiographic leakage in the choroid between the groups. […]

EARPALLTSRLRFIPK (listed as Homo sapiens) [pep1, telomerase-derived peptide of 16 amino acids, location [611-626] on human telomerase]
CNV area compared to the control ([1]; all groups 0.1, 1 and 10 nM): statistically significantly reduced
CNV area compared to the control ([1]; group at 1 nM): most drastically reduced
CNV thickness compared to the control ([2]; all groups 0.1, 1 and 10 nM, from 3 days before to 2 weeks after laser irradiation, OCT at 2 weeks): statistically significantly reduced
CNV thickness compared to the control ([2]; group at 1 nM, OCT at 2 weeks after laser): most drastically reduced
angiographic leakage level compared to the control ([3]; all groups 0.1, 1 and 10 nM): reduced
ratio of lesions with Grade 2B (clinically severe leakage level) compared to the control ([3]; all groups 0.1, 1 and 10 nM): reduced
ratio of lesions with Grade 2B (clinically severe leakage level) compared to the control ([3]; groups at 1 and 10 nM): drastically reduced
